One molecule from article PMC4467398, “Preclinical antitumor activity of ST7612AA1: a new oral thiol-based histone deacetylase (HDAC) inhibitor” (Oncotarget, 2014) can be followed below.

Data set [1] has as its system cell lines derived from epithelial cancers (lung, breast, colon, ovarian) and from leukemias and lymphomas. The data set is described as follows: In vitro proliferation assay, first broad panel (summary). As to conditions: first broad panel of human tumor cell lines; read-out: IC50 values, range over the panel. It counts as cell-based. The protocol: Anti-proliferative activity was first assessed on a panel of cell lines derived from solid tumors and hematological cancers and then on a large panel of cell lines derived from mature B-cell lymphomas. […] Lymphoma cells were seeded in 96-wells tissue culture plates in complete medium and were exposed to increasing concentrations of ST7612AA1 for 48 or 72 h; the anti-proliferative activity was assessed using 3-(4,5-dimethylthiazol-2-yl)-2,5-diphenyltetrazolium bromide (MTT). The drug potency was evaluated by means of the “ALLFIT” computer program and defined as IC50 (drug concentration required for 50% inhibition of cell survival).

In data set [2] the test system is acetylation of histone H4 in NCI-H460 NSCLC cells. The data set is described as follows: Western blot with densitometry, histone H4 acetylation. The data set is classed as cell-based, human. As to conditions: for Acetyl H4/H4: vehicle 0,0274. Here is the method: For assessing the in vitro effect of ST7612AA1 on acetylation of α-tubulin and histones, NSCLC cells were treated with the test compound at various concentrations (dose-response curve). SAHA 5 μM was used as reference inhibitor. Protein extraction, separation and immunoblotting were performed as previously described. Immunoreactive bands were finally subjected to densitometry analysis by a phosphoimaging system (STORM, Molecular Dynamics), and then the IC50 values were calculated by the “ALLFIT” computer program. The antibodies used are listed in Supplementary Table 2.
Background: Immunoblotting shows a protein as a band on a membrane.

The subject of the next data set is Ovarian cancer A2780. The data set is described as follows: In vitro proliferation assay (sulphorodamine B). The data set is classed as cell-based. As to conditions: Homo sapiens, 72 h, mean ± S.E.M.
The test system of another data set is Ovarian cancer SKOV-3. In words: In vitro proliferation assay (sulphorodamine B). The data set is classed as cell-based. The following applies: Homo sapiens, SK-OV-3, 72 h, mean ± S.E.M.
For another data set, the system named is GCB-DLBCL model DOHH2. In words: In vivo lymphoma xenograft model. Further details: species or system NOD-SCID mice. As to conditions: po at days 12, 13, 15, 16, 18, 19 after tumor injection; vs control mice. Here is the method:
The in vivo experiment with lymphoma model was performed in the IOR laboratory according to study protocols approved by the local Cantonal Veterinary Authority (No. 5/2011). At day 1, tumors were established by injecting DOHH2 lymphoma cells (200 μL of PBS, 8×10^6 cells/mouse) into the left flanks of 5-weeks old female NOD-SCID mice (Harlan Laboratories). Tumor size was measured on regular basis and until tumors reached around […] in diameter (day 12). Then, treatments were conducted at day 12, 13, 15, 16, 18, 19. Tumors were measured at 12, 14, 17, 21, 25 days. Tumor volumes were calculated as described above. Mice were sacrificed when physical conditions became critical or when tumors reached a weight of about 0.5 gr. For comparison between a control and a treatment group, an unpaired Mann-Whitney's test was used. A P-value <0.05 was considered significant.

The test system of data set [3] is Acute myeloid leukemia U937. The data set is described as follows: In vitro proliferation assay (sulphorodamine B). The data set is classed as cell-based. The following applies: Homo sapiens, U-937, 72 h, mean ± S.E.M.
Data set [4] is described as follows: PK sampling and analysis after a single oral dose of ST7612AA1 (plasma, LC-MS/MS). The data set is classed as in vivo, CD1 mice. As to conditions: single oral dose of 120 mg/kg; limit of quantification 25 ng/mL. Here is the method:
CD1 nude mice were used. Male mice were treated with a single dose of ST7612AA1 at 120 mg/10 mL/kg p.o., using 5% Solutol HS 15 in water for injection as vehicle. Blood samples were collected at 0.25, 0.5, 1, 2, 4 and 6 h post treatment from 5 animals per time point. Levels of ST7612AA1 and ST7464AA1 were determined in plasma by quantitative LC-MS/MS having a limit of quantification of 25 ng/mL. The PK parameters Cmax (maximum plasma concentration), Tmax (time of maximum plasma concentration), Clast (last quantifiable concentration), Tlast (time of last quantifiable plasma concentration), AUClast (area under the concentration vs time curve from 0 to Tlast), AUCINF (area under the concentration vs time curve from 0 to infinity), T1/2 (terminal half-life), CL/F (apparent systemic clearance) and Vz/F (apparent terminal volume of distribution) were derived from the analyte plasma concentration vs time data according to a model independent approach for sparse data sampling by using Phoenix WinNonlin® ver. 6.3 software (Pharsight, Cetara).

A further data set has as its system lymphoma cell lines. The data set is described as follows: Detection of apoptotic cells (Annexin V-FITC, flow cytometry). The data set is classed as cell-based, human. The following applies: 250 nM, 72 hrs; eight lymphoma cell lines. Here is the method:
Apoptosis was assessed, on cells treated with DMSO or different doses of ST7612AA1, by Annexin V-FITC apoptosis detection kit (BD Biosciences), according to the manufacturer's recommendations, on a FACScan flow cytometer (BD Biosciences).
For orientation: Flow cytometry measures light scatter and fluorescence of single cells or particles in a stream.

“Also recorded” adds a separate entry of the source.

As to `CC(=O)SCCCCC[C@H](NC(=O)[C@H]1CCC(=O)N1)C(=O)Nc1ccccc1` [ST7612AA1], the concentration for half-maximal inhibition (IC50) in data set [1] was 0.043 to 0.5 µM; in data set [2] (Homo sapiens, NCI-H460, 3 h exposure, Western blot densitometry, read-out: IC50 for increasing the acetylation of histone H4), 0.0048 µM; in the data set on Ovarian cancer A2780 it was 0.043 ± 0.01 µM; with Ovarian cancer SKOV-3 it was 0.38 µM; in data set [3], 0.049 µM. Moreover, the “Acetyl H4/H4” value in data set [2] (0,2 µM, NCI-H460) was 0,3352; in data set [2] (0,04 µM, NCI-H460) it was 0,3092; in data set [2] (1 µM, NCI-H460), 0,3757. Also, the “fold more potent in increasing acetylation of histone H4 than of tubulin” value in data set [2] (NCI-H460) is 40 fold. Also, the “tumor progression / tumor volumes” value in the data set on GCB-DLBCL model DOHH2 is recorded as “decreased tumor volumes; also recorded: significant delay in tumor progression”. In data set [4], the “ST7612AA1 in plasma after oral administration” value is recorded as “not detected”. Further, the “apoptosis (Annexin V positive cells)” value in the data set on lymphoma cell lines was “moderate apoptosis in three out of eight lymphoma cell lines”.

In general, IC50 refers to the midpoint of a concentration-inhibition curve.
